Values of other authors in US7288142B2, “Black dyes composition for ink-jet inks” (Everlight USA, Inc., priority 2005, dated 2007).

Key:
[1] = as ink-jet black dye, prior art
[2] = as ink-jet black dye, prior art; remark: listed apart in the source

light-fastness [1]	solubility [2]	Compound
poor	–	Nc1cc2c(O)c(N=Nc3ccc(N=Nc4ccc(S(=O)(=O)[O-])cc4)c4ccc(S(=O)(=O)[O-])cc34)c(S(=O)(=O)[O-])cc2cc1S(=O)(=O)[O-].[Na+].[Na+].[Na+].[Na+] [C.I. Food Black 2]
good	low	C.I. Direct Black 168
